Reference: ChEMBL document CHEMBL3046396, “Synthesis and insecticidal evaluation of N-tert-butyl-N'-thio[1-(6-chloro-3-pyridylmethyl)-2-nitroiminoimidazolidine]-N,N'-diacylhydrazines” (2010)
Calls of active or inactive are those of the source. The rule behind the calls is not given here.

Key:
[1] = test system: Aphis fabae; assay: Insecticidal activity against apterous adult stage of Aphis fabae ( black bean aphids) in soybean tender shoots assessed as death rate at 200 mg/l treated for 5 secs measured after 48 hr by modified FAO dip test; format: functional
[2] = test system: Mythimna separata; assay: Larvicidal activity against fourth-instar larval stage of Mythimna separata (Oriental armyworm) in compound-pretreated corn leaves assessed as mortality at 10 mg/l after 4 days; format: functional
[3] = test system: Mythimna separata; assay: Larvicidal activity against fourth-instar larval stage of Mythimna separata (Oriental armyworm) in compound-pretreated corn leaves assessed as mortality at 25 mg/l after 4 days; format: functional
[4] = test system: Mythimna separata; assay: Larvicidal activity against fourth-instar larval stage of Mythimna separata (Oriental armyworm) in compound-pretreated corn leaves assessed as mortality at 50 mg/l after 4 days; format: functional
[5] = test system: Aphis fabae; assay: Insecticidal activity against apterous adult stage of Aphis fabae (black bean aphids) in soybean tender shoots assessed as induction of premature, abnormal and lethal larva moult at 10 mg/l treated for 5 secs measured after 3 days by modified FAO dip test; format: functional, organism-based
[6] = test system: Mythimna separata; assay: Larvicidal activity against fourth-instar larval stage of Mythimna separata (Oriental armyworm) in compound-pretreated corn leaves assessed as mortality at 500 mg/l after 4 days; format: functional
[7] = test system: Aphis fabae; assay: Insecticidal activity against apterous adult stage of Aphis fabae (black bean aphids) in soybean tender shoots assessed as mortality at 200 mg/l treated for 5 secs measured after 2 hr by modified FAO dip test; format: functional, organism-based
[8] = test system: Mythimna separata; assay: Larvicidal activity against fourth-instar larval stage of Mythimna separata (Oriental armyworm) in compound-pretreated corn leaves assessed as mortality at 200 mg/l after 4 days; format: functional
[9] = test system: Mythimna separata; assay: Larvicidal activity against fourth-instar larval stage of Mythimna separata (Oriental armyworm) in compound-pretreated corn leaves assessed as mortality at 100 mg/l after 4 days; format: functional
[10] = test system: Mythimna separata; assay: Larvicidal activity against fourth-instar larval stage of Mythimna separata (Oriental armyworm) in compound-pretreated corn leaves assessed as mortality at 5 mg/l after 4 days; format: functional

Structure (SMILES)	Activity [1] [%]	mortality at 10 µg/mL [2] [%]	mortality at 25 µg/mL [3] [%]	mortality at 50 µg/mL [4] [%]	Activity [5]	mortality at 500 µg/mL [6] [%]	Activity [7]	mortality at 200 µg/mL [8] [%]	mortality at 100 µg/mL [9] [%]	mortality at 5 µg/mL [10] [%]
CC(C)(C)N(NC(=O)c1ccccc1)C(=O)c1ccccc1 [RH-5849]	0	0	70	100	Active					
Cc1cc(C)cc(C(=O)N(N(SN2CCN(Cc3ccc(Cl)nc3)/C2=N/[N+](=O)[O-])C(=O)c2ccccc2)C(C)(C)C)c1	80		0	10	Active	95	Active	85	55	
COc1ccc(C(=O)NN(C(=O)c2ccc(OC)cc2)C(C)(C)C)cc1	22			0	Active	95		40	10	
CC(C)(C)N(C(=O)c1ccccc1)N(SN1CCN(Cc2ccc(Cl)nc2)/C1=N/[N+](=O)[O-])C(=O)c1ccccc1	100				Active	100	Active	80	0	
CCc1ccc(C(=O)NN(C(=O)c2cc(C)cc(C)c2)C(C)(C)C)cc1 [TEBUFENOZIDE]	0	100			Active					70
CC(C)(C)N(NC(=O)c1ccccc1)C(=O)c1ccccc1Cl	18	75	90	100	Active					0
Cc1cc(C)cc(C(=O)N(NC(=O)c2ccccc2)C(C)(C)C)c1	12	10	60	100	Active					
COc1ccc(C(=O)N(N(SN2CCN(Cc3ccc(Cl)nc3)/C2=N/[N+](=O)[O-])C(=O)c2ccccc2)C(C)(C)C)cc1	95			0	Active	80	Active	70	20	
COc1ccc(C(=O)N(NC(=O)c2ccccc2)C(C)(C)C)cc1	0				Active	60		0		
CCc1ccc(C(=O)N(SN2CCN(Cc3ccc(Cl)nc3)/C2=N/[N+](=O)[O-])N(C(=O)c2cc(C)cc(C)c2)C(C)(C)C)cc1	53	90	100	100	Active		Active			70
CC(C)(C)N(C(=O)c1cccc(Cl)c1)N(SN1CCN(Cc2ccc(Cl)nc2)/C1=N/[N+](=O)[O-])C(=O)c1ccccc1	86		0	25	Active	100	Active	80	70	
CC(C)(C)N(NC(=O)c1ccccc1)C(=O)c1ccc(Cl)cc1	26	25	100	100	Active					0
COc1ccccc1C(=O)N(N(SN1CCN(Cc2ccc(Cl)nc2)/C1=N/[N+](=O)[O-])C(=O)c1ccccc1)C(C)(C)C	92			0	Active	90	Active	40	20	
Cc1cc(C)cc(C(=O)N(SN2CCN(Cc3ccc(Cl)nc3)/C2=N/[N+](=O)[O-])N(C(=O)c2cc(C)cc(C)c2)C(C)(C)C)c1	89	0	10	25	Active	100	Active	70	50	
CC(C)(C)N(C(=O)c1ccc(Cl)cc1)N(SN1CCN(Cc2ccc(Cl)nc2)/C1=N/[N+](=O)[O-])C(=O)c1ccccc1	87		0	40	Active	100	Active	80	70	
CC(C)(C)N(NC(=O)c1ccccc1)C(=O)c1cccc(Cl)c1	12	0	45	95	Active				100	
Cc1cc(C)cc(C(=O)NN(C(=O)c2cc(C)cc(C)c2)C(C)(C)C)c1	10	10	70	95	Active					
O=[N+]([O-])/N=C1\NCCN1Cc1ccc(Cl)nc1 [IMIDACLOPRID]	100	10	20	30			Active	100	60	
COc1ccccc1C(=O)N(NC(=O)c1ccccc1)C(C)(C)C	32	10	90	100	Active					0
COc1ccccc1C(=O)NN(C(=O)c1ccccc1OC)C(C)(C)C	0				Active	10		70		
COc1ccc(C(=O)N(SN2CCN(Cc3ccc(Cl)nc3)/C2=N/[N+](=O)[O-])N(C(=O)c2ccc(OC)cc2)C(C)(C)C)cc1	87			0	Active	100	Active	70	40	
COc1ccccc1C(=O)N(SN1CCN(Cc2ccc(Cl)nc2)/C1=N/[N+](=O)[O-])N(C(=O)c1ccccc1OC)C(C)(C)C	91		0	10	Active	80	Active	70	40	
CC(C)(C)N(C(=O)c1ccccc1Cl)N(SN1CCN(Cc2ccc(Cl)nc2)/C1=N/[N+](=O)[O-])C(=O)c1ccccc1	84	0	10	30	Active	100	Active	60	50	
